Data from article PMC9487510, “A Novel Oral GyrB/ParE Dual Binding Inhibitor Effective against Multidrug-Resistant Neisseria gonorrhoeae and Other High-Threat Pathogens” (Antimicrobial Agents and Chemotherapy, 2022).
Values after ≈ are worked out from the molar mass of the structure shown. Values joined by “and” are separate entries in the source; they are usually repeats but may differ in a detail not shown here. Identical values can stand only once. Like-named read-outs stand apart in the source and are kept apart here.

Tests used:
E. coli = tested on: E. coli; set-up: method as in PMID 28483959, PMID 31315953; settings: cited from earlier work
N. gonorrhoeae = settings: QC strain ATCC 49926; cited from earlier work
S. aureus = settings: organism not named in the sentence (context MRSA/S. aureus); cited from earlier work
C. difficile BAA-1805 = assay: Hamster C. difficile colitis model; format: in vivo, Golden Syrian hamster
[1] = tested on: N. gonorrhoeae (ATCC 700825); assay: Intravaginal infection model, ovariectomized BALB/c mice, strain ATCC 700825; format: in vivo, mouse (BALB/c); settings: for killing effect relative to the baseline group: 26, 76 and 170 h after infection; for killing effect (bacterial counts in vaginal lavage): 26 h postinfection
[2] = Liver microsome stability, mouse; format: in vitro ADME; settings: male, CD-1, mouse, liver microsomes, pH 7.4
Description: Liver microsome stability assays were performed by BioDuro Inc. Human and mouse (CD-1 male) liver microsomes were used. […] Next, 50 μL of reaction buffer was added to solution and mixed via pipetting up and down 6 times. At each time point of 0, 30, and 60 min, an aliquot of 20 μL was removed from each tube. Liver microsomes (LM) working solution was prepared in 0.05 M phosphate reaction buffer (pH = 7.4) to a final concentration of 1.27 mg/mL. NADPH solution was prepared in 0.05 M phosphate buffer to afford a 5 mM buffer solution. […] After vortexing and incubating for 5 min (37°C), 50 μL of NADPH solution was added and mixed via pipetting. At each time point of 0, 5, 15, 30, and 60 min, an aliquot of 20 μL was removed from each tube. Next, 250 μL of quenching solution was aliquoted to quench the reaction, which was then vortexed for 1 min and placed on ice for 40 min. After centrifugation at 4,000 × g for 15 min, 100 μL of supernatant was transferred using a multichannel pipette to 0.65-mL tubes. Samples were diluted with MeOH: H2O (1:1) as necessary. Samples were analyzed by high-pressure liquid chromatography coupled to tandem mass spectrometry (LC/MS/MS) performed on a Sciex Applied Biosystems Qtrap 4000 triple-quadrupole mass spectrometer coupled to a Shimadzu HPLC system to quantify the remaining compound. Data were processed using Analyst software (version 1.4.2; Applied Biosystems Sciex). […] Metabolite identification on the microsomal extracts was performed using a Q-Exactive HRMS coupled with an Ultimate 3000 HPLC system and a Kinetix C18 2.1 × 50-mm 2.6-μm HPLC column.

S. aureus VRSA, VRS-2 = assay: Neutropenic murine thigh infection model; format: in vivo, mouse (ICR); settings: 26 h after infection
[3] = tested on: Neisseria gonorrhoeae strain H041; assay: Estradiol-treated mouse model of cervico-vaginal infection, strain H041; format: in vivo, mouse (BALB/c); settings: for percentage of mice colonized over 8 culture days after treatment: vs vehicle
[4] = Mouse pharmacokinetics of JSF-2659; format: in vivo; settings: oral administration in mice; data not shown
[5] = Kinetic aqueous solubility; format: physicochemical
MRSA = assay: MIC, in vitro susceptibility testing (CLSI); format: cell-based, Staphylococcus aureus
VRSA = settings: cited from earlier work
MRSE = assay: MIC, in vitro susceptibility testing (CLSI); format: cell-based, Staphylococcus epidermidis
VISA = assay: MIC, in vitro susceptibility testing (CLSI); format: cell-based, Staphylococcus aureus
C. difficile = assay: MIC, toxigenic C. difficile panel (CLSI); format: cell-based, Clostridioides difficile; settings: for MIC: Clostridioides difficile

O=c1ccc2ncc(=O)n3c2n1C[C@H]3CN1CCC(NCc2cc3c(cn2)OCCC3)CC1 [Gepotidacin]
MIC (E. coli): 4 µg/mL (≈ 8.92 µM) | modal MIC (N. gonorrhoeae): 0.5 µg/mL | MIC90 (S. aureus): 0.5 µg/mL (≈ 1.11 µM)

CNc1cc(F)cc2c1[nH]c1nc(Oc3cnc(C)nc3)nc(N3CCC4(CC3)CO[C@@H](COP(=O)(O)O)C4)c12 [JSF-2659]
survival, 14-day observation (C. difficile BAA-1805; 20 mg/kg PO BID for 5 days): 100% | survival, 14-day observation (C. difficile BAA-1805; 100 mg/kg PO BID for 5 days): 100% | survival, 14-day observation (C. difficile BAA-1805; 250 mg/kg PO BID for 5 days): 100% | body weight change during the 14-day observation period (C. difficile BAA-1805; 20, 100 and 250 mg/kg PO BID, relative to the positive controls): No significant loss of body weight | killing effect relative to the baseline group ([1]; IM 75 mg/kg QD): > 3 log10 | killing effect relative to the baseline group ([1]; IM 250 mg/kg QD): > 3 log10 | killing effect relative to the baseline group ([1]; PO 75 mg/kg TID): > 3 log10 | killing effect relative to the baseline group ([1]; PO 250 mg/kg QD): > 3 log10 | killing effect relative to the baseline group ([1]; PO 250 mg/kg TID): > 3 log10 | killing effect (bacterial counts in vaginal lavage) ([1]; IM 75 mg/kg QD, relative to control): 3.51 log10 | killing effect (bacterial counts in vaginal lavage) ([1]; IM 250 mg/kg QD, relative to control): 3.39 log10 | killing effect (bacterial counts in vaginal lavage) ([1]; PO 75 mg/kg QD, relative to baseline group): 1 log10 | killing effect (bacterial counts in vaginal lavage) ([1]; PO 75 mg/kg TID, relative to control): 3.51 log10 | killing effect (bacterial counts in vaginal lavage) ([1]; PO 250 mg/kg QD, relative to control): 3.51 log10 | killing effect (bacterial counts in vaginal lavage) ([1]; PO 250 mg/kg TID, relative to control): 3.51 log10 | reduction of burden to the limit of detection ([1]; dose-dependent oral administration): ~ 4.5 log10 | microsomal CLint at 1 μM ([2]; read-out: MLM Clint): 0.5 µL/min/mg | half-life at 1 μM ([2]; read-out: MLM t1/2): 23.1 h | bacterial count reduction in thigh relative to vehicle control (S. aureus VRSA, VRS-2; PO 100 mg/kg QD): 0.95 log10 | bacterial count reduction in thigh relative to vehicle control (S. aureus VRSA, VRS-2; PO 100 mg/kg TID): 4.84 log10 | bacterial count reduction in thigh relative to vehicle control (S. aureus VRSA, VRS-2; PO 250 mg/kg QD): 4.42 log10 | bacterial count reduction in thigh relative to vehicle control (S. aureus VRSA, VRS-2; PO 250 mg/kg TID, 250 mg/kg): 6.26 log10 and > 6.2 log10 | percentage of mice colonized over 8 culture days after treatment ([3]; 75 mg/kg TID (q 6 h) PO): significant reduction in the percentage of mice colonized | percentage of mice colonized over 8 culture days after treatment ([3]; 250 mg/kg QD PO): significant reduction in the percentage of mice colonized | percentage of mice colonized over 8 culture days after treatment ([3]; 250 mg/kg TID (q 6 h) PO): significant reduction in the percentage of mice colonized | average CFU/mL recovered after 48 h of treatment ([3]; 250 mg/kg TID PO, vs vehicle (P = 0.058)): significantly reduced compared to the vehicle control | average CFU per mL of vaginal swab suspension over time ([3]; 250 mg/kg TID PO, P = 0.004): significantly different than the vehicle control group | conversion by host phosphatases to JSF-2414 [4]: > 99% | increase of solubility over the parent drug candidate ([5]; JSF-2659 vs JSF-2414): 764 fold | solubility kinetic ([5]; aqueous medium (not further specified)): 440 µM (≈ 252 µg/mL)

CN[C@H](CC(C)C)C(=O)N[C@H]1C(=O)N[C@@H](CC(N)=O)C(=O)N[C@H]2C(=O)N[C@H]3C(=O)N[C@H](C(=O)N[C@H](C(=O)O)c4cc(O)cc(O)c4-c4cc3ccc4O)[C@H](O)c3ccc(c(Cl)c3)Oc3cc2cc(c3O[C@@H]2O[C@H](CO)[C@@H](O)[C@H](O)[C@H]2O[C@H]2C[C@](C)(N)[C@H](O)[C@H](C)O2)Oc2ccc(cc2Cl)[C@H]1O [Van, vancomycin]
survival (C. difficile BAA-1805; 20 mg/kg PO BID for 5 days): 100% | MIC (MRSA): 1.0 µg/mL (≈ 0.69 µM) | MIC range (MRSA): 0.5 to 1 µg/mL | MIC (MRSA; Staphylococcus aureus, MRSA): 0.5 µg/mL (≈ 0.345 µM) | MIC (VRSA): > 64 µg/mL | MIC range (MRSE): 0.5 to 1 µg/mL | MIC (MRSE; Staphylococcus epidermidis, MRSE): 0.5 µg/mL (≈ 0.345 µM) | bacterial count reduction in thigh (S. aureus VRSA, VRS-2; SC 100 mg/kg TID): 2.09 log10 | MIC range (VISA): 3.125 to 12.5 µg/mL | MIC range (C. difficile): 0.5 to 1 µg/mL | MIC (C. difficile): 1 µg/mL (≈ 0.69 µM) | MIC (C. difficile; BAA1805): 0.5 µg/mL (≈ 0.345 µM) | MIC (C. difficile; BAA1808): 0.5 µg/mL (≈ 0.345 µM) | MIC (C. difficile; BAA1874): 0.5 µg/mL (≈ 0.345 µM) | MIC (C. difficile; BAA1875): 0.5 µg/mL (≈ 0.345 µM)
